Laboratory results from US10160705B2, “Class of HDAC inhibitors expands the renal progenitor cells population and improves the rate of recovery from acute kidney injury” (University of Pittsburgh—Of the Commonwealth System of …, priority 2011, dated 2018).

How the values were obtained:
lhx1a, pax2a, pax8, ntla = test: Relative qPCR in the trunk region of 10-somite embryos; type: in vivo, zebrafish; settings: 3 μM
Method: Several of the genes analyzed by qPCR, including lhx1a and pax2a, show expression in anterior regions of the embryo as well as the IM. To focus more specifically on effects in the IM, cDNA samples taken from the trunks of treated and control embryos were examined. Samples for trunk RNA extraction were prepared by cutting embryos just above the first somite with microscissors and discarding the anterior portion. The trunk portions were homogenized with a plastic microcentrifuge pestle in 500 μL of TRI reagent (Ambion), and RNA was isolated using an RNeasy Micro Kit (QIAGEN) per the manufacturer's instructions. 1 μg RNA was heated to 75° C. for 5 min and then placed on ice. […]
Primer sets were designed using NetPrimer and Beacon Designer (ver. 7.51) primer analysis software (PREMIER Biosoft). […] Primer melting temperatures were maintained between 60° C. and 64° C. as determined by NetPrimer. […] The reference gene primer sets have been previously described (Tang, R., Dodd, A., Lai, D., McNabb, W. C. & Love, D. R. Validation of zebrafish (Danio rerio) reference genes for quantitative real-time RT-PCR normalization. Acta Biochim Biophys Sin (Shanghai) 39, 384-390, (2007)) with one modification. […]
Relative gene expression was calculated using iQ5 software (ver. 2.0, Bio-Rad) to determine normalized expression levels (ΔΔCt method). […]

human HDACs = test: Fluorescence histone deacetylation assay with HeLa cell nuclear extract; type: biochemical
Method: To evaluate this in vitro, the deacetylation of a fluorescent peptide substrate was measured in the presence of human HDACs.
In vitro HDAC activity assays were performed using a fluorescence HDAC assay kit (Active Motif) according to the manufacturer's instructions. For maintaining compound solubility at 5 mM, the final DMSO concentration in all assay wells was increased to 5%. Fluorescence was detected using an M5 Plate Reader ([…])

histone H4 = test: Histone H4 hyperacetylation Western blot in treated embryos; type: in vivo, zebrafish; settings: 24 hpf embryos, 6 hours; 3 μM PTBA, 25 μM PBA, 200 nM TSA
Method: It was next determined whether the HDACi function of PTBA was quantifiable in vivo. 24 hpf embryos were treated with 3 μM PTBA, 25 μM PBA, or 200 nM TSA for 6 hours. Protein extracts were prepared and immunoblotted with an anti-hyperacetylated histone H4 antibody. […] Furthermore, increasing the compound concentration caused a corresponding increase in hyperacetylation (FIG. 21).
SDS-PAGE and Western blotting were performed as described previously with some modifications (Noel, E. S. et al. Organ-specific requirements for Hdac1 in liver and pancreas formation. Dev Biol 322, 237-250, (2008)). Proteins were separated on 18% SDS-PAGE gels. Membranes were incubated at 4° C. overnight with 1:1000 anti-hyperacetylated histone H4 antibody (06-946, Millipore) or 1:1000 anti-α-tubulin antibody (Sigma-Aldrich) in PBT containing 5% nonfat milk.

## O=C(O)CCCSc1ccccc1 [UPHD-00020, 4-(phenylthio)butanoic acid (PTBA)]
lhx1a, pax2a, pax8, ntla
  increase in pax2a expression by qPCR: almost two-fold increase
  increase in relative lhx1a transcript by qPCR: three-fold increase
Human HDACs; 5 mM compound
  HDAC activity elicited by 10 μg HeLa extract, percent of the control value: 30%
Human HDACs; millimolar concentrations
  reduction of HDAC activity: 70%
Histone H4
  histone H4 hyperacetylation: Histone H4 hyperacetylation was observed
